The text below walks through data of patent US20050095663A1, “Process for screening fungitoxic compounds” (priority 2002, published 2005).

One assay deals with S. cerevisiae. Description: Growth inhibition of S. cerevisiae by compound 1. It is filed as cell-based. Particulars: Saccharomyces cerevisiae, 18 h. The protocol: (§1) Fifty ml of YPG culture medium (10 g yeast extract, 20 g peptone, and 20 g glucose per liter of water) in a 250 ml Erlenmeyer flask was inoculated with Saccharomyces cereviae (strain X2180-1A) to give an absorbance at 700 nm of 0.02. This culture was incubated for 18 h at 30° C. with shaking at 225 rpm. The cells were harvested by centrifugation, washed once with SD medium (6.7 g Bacto-yeast nitrogen base and 20 g glucose per liter of water), and suspended in SD medium to give an Absorbance at 700 nm of 0.04. Aliquots (5 ml) of cell suspension were distributed in 20 ml capacity glass vials. Treatments containing compound 1 or cerulenin received 25 μl of a solution of compound in dimethylsulfoxide (DMSO) at 240 ppm or 160 ppm, respectively. Control treatments without compound 1 or cerulenin received 25 ul DMSO. Treatments containing a fatty acid received 25 μl of a 2 mM solution of the fatty acid in a 1% solution of Triton X-100 providing a concentration of 10 μM. Treatments without fatty acid received 25 ul of 1% Triton X-100. All treatments were carried out in duplicate. Vials were incubated for 22 h at 30° C. with shaking at 225 rpm. Growth of the cells was then estimated by diluting the cells in each treatment 3-fold with SD medium and measuring the asorbance at 700 nm. The results in Table 3 show inhibition of growth expressed as a percentage of growth in DMSO controls containing Triton X-100 but lacking Compound 1, cerulenin or fatty acid.
S. cerevisiae was grown in SD medium as 5 ml aliquots of cell suspension in 20 ml capacity glass vials as described in example 3 in the absence (controls) and presence of compound 1. Compound 1 was added as 25 μl of solution in DMSO, and controls received 25 ul DMSO alone. After growth for 18 h at 30° C. with shaking at 225 rpm, inhibition of growth by compound 1 was determined as described in example 3, and the fatty acid composition was determined as follows. The cells were centrifuged in 20 ml borosilicate glass culture tubes at 2000 rpm. The supernatant was decanted, and the cells were re-suspended in 10 ml of water and re-centrifuged at 2000 rpm. The supernatant was decanted, and the cells were saponified by heating at 80° C. for 1 hour in 2.5 ml of 10% potassium hydroxide solution in 90% methanol/10% water. The non-saponifiable lipids were removed by extracting the basic solution with 2×3 ml of cyclohexane. The basic solution was then acidified to pH 2 with 6N hydrochloric acid, and the acidic solution was again extracted with 2×3 ml of cyclohexane. These extracts were analyzed directly by capillary gas chromatography using an HP5890 gas chromatograph equipped with a Restek Stabilwax DB capillary column (30m×0.53 mm i.d.×0.25 μm film thickness) and a flame ionization detector. Analyses were run at 225° C. isothermally, and compared to a sample free fatty acid mixture prepared from authentic standards purchased from Sigma.

Assay [1] has as its target T1, Yeast Δ-9 fatty acid desaturase (Saccharomyces cerevisiae, UniProt P21147).
T1 construct: the resulting microsomal pellet suspended in 10 ml of ice-cold 0.1 M potassium phosphate buffer; endogenous in cells; host or cells: Saccharomyces cerevisiae ATCC strain 12341, microsomal fraction
Description: Yeast microsomal Δ-9 fatty acid desaturase assay (14C-palmitoyl-CoA to palmitoleic acid). The class given is biochemical. The procedure: The following method was used to prepare the microsomal Δ-9 fatty acid desaturase from yeast. Two 250 ml flasks containing 100 ml each of glucose-yeast extract medium (0.4% yeast extract and 2% glucose) were inoculated with Saccharomyces cerevisiae strain 12341 obtained from the American Type Culture Collection, and grown for 48 h at 30° C. with shaking at 250 rpm. The cells were used to inoculate a 4 liter flask containing 3.6 liters of medium. The cells were grown at 30° C. with gentle shaking at 90 rpm for 24 h. […]
Delta-9 Fatty acid desaturase assays were performed by measuring the desaturation of ^14C-palmitoyl-CoA to palmitoleic acid using 0.5 ml reaction mixtures containing 0.1 M potassium phosphate buffer, pH 7.2, 1 mM NADH and 26 μM ^14C-palmitoyl-CoA (0.028 μCi per assay) in 13×100 mm glass culture tubes. […] The upper cyclohexane layer was removed and 100 μI analyzed by HPLC on a Supelcosil LC-18 column (25×4.6 mm) with methanol-water-phosphoric acid (90:9.9:0.1, by volume) as the mobile phase at a flow rate of 1 ml/min. A Packard A120 RAM detector was used to determine the amounts of radioactivity in the palmitic and palmitoleic acid fractions. The percent inhibition of desaturation was determined by comparing the production of palmitoleic acid in assays containing compound 1 with production in assays containing DMSO alone. […]

The subject of assay [2] is Saccharomyces cerevisiae (strain X2180-1A). Description: Effect of fatty acids on fungitoxicity (growth inhibition, absorbance at 700 nm). The class given is cell-based. Particulars: 22 h, 1.2 ppm. The procedure: as §1

Each structure is given as a SMILES string.

One may read the inhibition as the relative decrease from the control value, in per cent.

T1 sequence (P21147 whole entry, stated change not applied): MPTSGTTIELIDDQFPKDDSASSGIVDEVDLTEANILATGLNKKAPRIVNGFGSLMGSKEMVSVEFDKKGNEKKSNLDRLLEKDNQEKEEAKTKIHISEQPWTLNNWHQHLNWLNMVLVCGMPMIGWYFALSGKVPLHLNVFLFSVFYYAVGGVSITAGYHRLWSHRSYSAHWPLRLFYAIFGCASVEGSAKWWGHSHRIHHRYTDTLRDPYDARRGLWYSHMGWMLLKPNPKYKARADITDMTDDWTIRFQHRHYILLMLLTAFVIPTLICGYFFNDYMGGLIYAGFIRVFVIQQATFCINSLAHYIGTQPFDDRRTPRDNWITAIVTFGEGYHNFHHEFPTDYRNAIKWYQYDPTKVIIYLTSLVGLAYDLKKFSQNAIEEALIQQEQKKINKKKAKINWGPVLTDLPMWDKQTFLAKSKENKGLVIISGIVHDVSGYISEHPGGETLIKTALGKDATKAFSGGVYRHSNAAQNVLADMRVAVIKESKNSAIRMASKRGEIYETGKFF

Turning to `CCC#CCn1nc(-c2ccc(Cl)cc2)ccc1=O` [Compound 1, 6-(4-chlorophenyl)-2-(2′-pentynyl)pyridazinone], the inhibition at 0.0625 µg/mL in the assay with S. cerevisiae (0.0625 μg/ml) is 10.1%. In addition, in the assay on S. cerevisiae (0.125 μg/ml), testing at 0.125 µg/mL gave an inhibition of 14.3%. The molecule also displayed an inhibition at 0.25 µg/mL in the assay on S. cerevisiae (0.25 μg/ml) of 19.1%. Moreover, the inhibition at 0.5 µg/mL in the assay on S. cerevisiae (0.5 μg/ml) came out at 38.7%. In the assay on S. cerevisiae (1 μg/ml), this molecule gave an inhibition at 1 µg/mL of 54.4%. In the assay on S. cerevisiae (2 μg/ml), 2 µg/mL produced 66.4% inhibition. Moreover, the “Inhibition of fungal Δ-9 fatty acid desaturase (in words)” value in assay [1] is “potent inhibitor”. Also, the “Yeast desaturase EC50” value in assay [1] (microsomal preparation, 26 μM 14C-palmitoyl-CoA, 30° C., 5 min) is reported as 0.055 ppm. The inhibition at 1.2 ppm in assay [2] (no fatty acid) is 76.9%; in assay [2] (oleic acid 10 μM) it was 18.7%; in assay [2] (palmitic acid 10 μM) it was 95.5%; in assay [2] (palmitoleic acid 10 μM), 21.8%; in assay [2] (pentadecanoic acid 10 μM), 96.7%.
